Earlier results, collected in US20030158162A1, “Methods of treating ophthalmic disorders with epoxy-steroidal aldosterone receptor antagonists” (priority 2001, published 2003).

Conditions: Klin Monatsbl Augenheilkd 176(3):445-6 (1980)

Structure (SMILES): CC(=O)S[C@@H]1CC2=CC(=O)CC[C@]2(C)[C@H]2CC[C@@]3(C)[C@@H](CC[C@@]34CCC(=O)O4)[C@H]12 [Spironolactone]
- effect on IOP in glaucoma patients: lower IOP
